Assay results published in US20250304571A1, “BIOLOGICALLY ACTIVE COMPOUNDS AND METHODS THEREOF” (Suzhou Keen Therapeutics Co., Ltd., priority 2022, published 2025).

tested on: 786-O (renal cell carcinoma) cells; test: Cell viability (CellTiter Glo) assay, inhibition of 786-O cell proliferation; format: cell-based; conditions: Homo sapiens, 786-0, 72 h, read-out: IC50, inhibition of 786-O cell proliferation

SMILES	IC50
CN1CCN=C1OCc1ncc2c(n1)N(c1ccc(Oc3ccccc3)cc1)CC2(C)C [Compound E140]	500 to 5000 nM
CN(C)C(=N)OCc1ncc2c(n1)N(c1ccc(OC3CCOCC3)nc1)CC21CC1 [Compound E147]	> 5000 nM

same assay, conditions: Homo sapiens, 786-0; 786-O cells, 72 hours, CellTiter Glo; read-out: IC50, inhibition of 786-O cell proliferation

SMILES	IC50
CC(C)N(CC(F)(F)F)C(=N)OCc1ncc2c(n1)N(c1ccc(OC3CC3)nc1)C(=O)C21CC1 [Compound E139]	500 to 5000 nM
CC(C)N(CC(F)(F)F)C(=N)OCc1ncc2c(n1)N(c1cccc(Oc3ccccc3)c1)CC21CC1 [Compound E142]	500 to 5000 nM
CC(C)N(CC(F)(F)F)C(=N)OCc1ncc2c(n1)N(c1ccccc1Oc1ccccc1)CC21CC1 [Compound E143]	100 to 500 nM
CC(C)N(CC(F)(F)F)C(=N)OCc1ncc2c(n1)N(c1cccc(OC3CCOCC3)c1)CC21CC1 [Compound E144]	500 to 5000 nM
CC(C)N(CC(F)(F)F)C(=N)OCc1ncc2c(n1)N(c1ccc(OC3CCOCC3)cc1)CC21CC1 [Compound E145]	100 to 500 nM
N=C(OCc1ncc2c(n1)N(c1ccc(OC3CCOCC3)nc1)CC21CC1)N1CC(F)(F)C1 [Compound E146]	500 to 5000 nM
CC(C)N(CC(F)(F)F)C(=N)OCc1ncc2c(n1)N(c1ccc(N3CCOCC3)nc1)C(=O)CC2 [Compound E148, 1-isopropyl-2-[[8-(6-morpholino-3-pyridyl)-7-oxo-5,6-dihydropyrido[2,3-d]pyrimidin-2-yl]methyl]-1-(2,2,2-trifluoroethyl)isourea]	> 5000 nM
CC(C)N(CC(F)(F)F)C(=N)OCc1ncc2c(n1)N(c1ccc(N3CCOCC3)nc1)C(=O)C21CC1 [Compound E149]	500 to 5000 nM
CC(C)N(CC(F)(F)F)C(=N)OCc1ncc2c(n1)N(c1ccc(N3CCCCC3)nc1)C(=O)C21CC1 [Compound E150]	100 to 500 nM
CN1CCCN=C1OCc1ncc2c(n1)N(c1ccc(Oc3ccccc3)cc1)CC2(C)C [Compound E151, 5,5-dimethyl-2-(((1-methyl-1,4,5,6-tetrahydropyrimidin-2-yl)oxy)methyl)-7-(4-phenoxyphenyl)-6,7-dihydro-5H-pyrrolo[2,3-d]pyrimidine]	> 5000 nM
CC(C)N(CC(F)(F)F)C(=N)OCc1ncc(C2CCCCO2)c(Nc2ccc(N3CCOCC3)nc2)n1 (stereo not drawn) [Compound E156, (4-((6-morpholinopyridin-3-yl)amino)-5-(tetrahydro-2H-pyran-2-yl)pyrimidin-2-yl)methyl isopropyl]	500 to 5000 nM

Results, then the compound that gave them:

IC50	SMILES
< 100 nM	CN(CC(F)(F)F)C(=N)OCc1ncc2c(n1)N(c1ccc(Oc3ccccc3)cc1)CC2(C)C [Compound E136]
< 100 nM	CC(C)N(CC(F)(F)F)C(=N)OCc1ncc2c(n1)N(c1ccc(Oc3ccccc3)cc1)CC21CC1 [Compound E137]
100 to 500 nM	CC(C)N(CC(F)(F)F)C(=N)OCc1ncc(C(C)(C)O)c(Nc2ccc(Oc3ccccc3)cc2)n1 [Compound E138]
100 to 500 nM	CC(C)N(CC(F)(F)F)C(=N)OCc1ncc2c(n1)N(c1ccc(N3CCOCC3)nc1)CC21CC1 [Compound E141]
< 100 nM	CNc1nc(COC(=N)N2CCCC2C(F)(F)F)nc2c1C(C)(C)C(=O)N2c1ccc(N2CCOCC2)cc1 (stereo not drawn) [Compound E152, [5,5-dimethyl-4-(methylamino)-7-(4-morpholinophenyl)-6-oxo-pyrrolo[2,3-d]pyrimidin-2 yl]methyl 2-(trifluoromethyl)pyrrolidine-1-carboximidate]
< 100 nM	CNc1nc(COC(=N)N2CCCCC2C(F)(F)F)nc2c1C(C)(C)C(=O)N2c1ccc(N2CCOCC2)cc1 (stereo not drawn) [Compound E153]
< 100 nM	[2H]C([2H])(OC(=N)N(CC(F)(F)F)C(C)C)c1nc(N)c2c(n1)N(c1ccc(OC3CCCCC3)cc1)CC2(C)C [Compound E154, ethyl (4-amino-7-(4-(cyclohexyloxy)phenyl)-5,5-dimethyl-6,7-dihydro-5H-pyrrolo[2,3-d]pyrimidin-2-yl)methyl-d2 isopropyl(2,2,2-trifluoroethyl)carbamimidate]
< 100 nM	[2H]C([2H])(OC(=N)N1CCCCC1C(F)(F)F)c1nc(N)c2c(n1)N(c1ccc(OC3CCCCC3)cc1)CC2(C)C (stereo not drawn) [Compound E155]
